Reference: the CheMixHub viscosity set

Assay: xn = mol fraction of the nth substance listed

COCCOCCOCCO + CCCO
viscosity [mPa·s], 101 kPa
Details | 298.15 K | 308.15 K | 318.15 K
x1 = 0.0134 | 1.952 | 1.526 | 1.246
x1 = 0.0366 | 1.983 | 1.555 | 1.273
x1 = 0.0639 | 2.034 | 1.604 | 1.32
x1 = 0.1165 | 2.159 | 1.692 | 1.4
x1 = 0.1568 | 2.273 | 1.786 | 1.484
x1 = 0.2037 | 2.434 | 1.894 | 1.576
x1 = 0.2664 | 2.652 | 2.064 | 1.715
x1 = 0.3205 | 2.847 | 2.213 | 1.851
x1 = 0.3498 | 3.007 | 2.328 | 1.927
x1 = 0.3669 | 3.042 | 2.349 | 1.973
x1 = 0.4076 | 3.264 | 2.495 | 2.085
x1 = 0.4623 | 3.514 | 2.678 | 2.228
x1 = 0.5601 | 4 | 3.021 | 2.51
x1 = 0.6022 | 4.21 | 3.158 | 2.624
x1 = 0.6441 | 4.433 | 3.312 | 2.741
x1 = 0.7071 | 4.778 | 3.545 | 2.921
x1 = 0.7635 | 5.059 | 3.746 | 3.074
x1 = 0.8228 | 5.311 | 3.929 | 3.238
x1 = 0.8494 | 5.452 | 4.008 | 3.312
x1 = 0.9137 | 5.74 | 4.23 | 3.489
x1 = 0.9358 | 5.875 | 4.299 | 3.55
x1 = 0.961 | 6.08 | 4.384 | 3.616

COCCOCCOCCOC + CCCO
viscosity [mPa·s]
Details | 298.15 K | 308.15 K
101 kPa, x1 = 0.0386 | 1.777 | 1.406
101 kPa, x1 = 0.0615 | 1.714 | 1.363
101 kPa, x1 = 0.076 | 1.697 | 1.34
101 kPa, x1 = 0.1064 | 1.636 | 1.318
101 kPa, x1 = 0.1595 | 1.584 | 1.28
101 kPa, x1 = 0.2157 | 1.577 | 1.288
101 kPa, x1 = 0.2499 | 1.572 | 1.274
101 kPa, x1 = 0.2631 | 1.57 | 1.275
101 kPa, x1 = 0.3355 | 1.594 | 1.288
101 kPa, x1 = 0.422 | 1.607 | 1.315
101 kPa, x1 = 0.4701 | 1.635 | 1.335
101 kPa, x1 = 0.5148 | 1.654 | 1.363
101 kPa, x1 = 0.5848 | 1.693 | 1.385
101 kPa, x1 = 0.6662 | 1.743 | 1.442
101 kPa, x1 = 0.7126 | 1.772 | 1.456
101 kPa, x1 = 0.7778 | 1.826 | 1.483
101 kPa, x1 = 0.8098 | 1.853 | 1.508
101 kPa, x1 = 0.8789 | 1.89 | 1.536
101 kPa, x1 = 0.9504 | 1.942 | 1.58
101 kPa, x1 = 0.9719 | 1.956 | 1.592
101.33 kPa, x1 = 0.0081 | 1.918 | –
101.33 kPa, x1 = 0.0165 | 1.884 | –
101.33 kPa, x1 = 0.0245 | 1.856 | –
101.33 kPa, x1 = 0.0336 | 1.824 | –
101.33 kPa, x1 = 0.048 | 1.781 | –
101.33 kPa, x1 = 0.0692 | 1.725 | –
101.33 kPa, x1 = 0.0946 | 1.67 | –
101.33 kPa, x1 = 0.1327 | 1.614 | –
101.33 kPa, x1 = 0.1747 | 1.573 | –
101.33 kPa, x1 = 0.2259 | 1.549 | –
101.33 kPa, x1 = 0.2757 | 1.544 | –
101.33 kPa, x1 = 0.3226 | 1.548 | –
101.33 kPa, x1 = 0.3691 | 1.563 | –
101.33 kPa, x1 = 0.4157 | 1.578 | –
101.33 kPa, x1 = 0.4606 | 1.598 | –
101.33 kPa, x1 = 0.5153 | 1.625 | –
101.33 kPa, x1 = 0.5714 | 1.653 | –
101.33 kPa, x1 = 0.6283 | 1.684 | –
101.33 kPa, x1 = 0.6732 | 1.713 | –
101.33 kPa, x1 = 0.7227 | 1.743 | –
101.33 kPa, x1 = 0.7726 | 1.778 | –
101.33 kPa, x1 = 0.8162 | 1.812 | –
101.33 kPa, x1 = 0.8625 | 1.848 | –
101.33 kPa, x1 = 0.9112 | 1.888 | –
101.33 kPa, x1 = 0.9347 | 1.904 | –
101.33 kPa, x1 = 0.9568 | 1.919 | –
101.33 kPa, x1 = 0.9775 | 1.935 | –

C[NH+](CCO)CCO.O=C[O-] + CCCO
viscosity [mPa·s], 101 kPa
Details | 293.15 K | 303.15 K | 313.15 K | 323.15 K
x1 = 0.0561 | 29.65 | 17.05 | 8.082 | 5.559
x1 = 0.1033 | 51.95 | 25.07 | 13.55 | 9.307
x1 = 0.1976 | 99.81 | 47.76 | 25.74 | 17.6
x1 = 0.3071 | 159.4 | 78.44 | 41.48 | 28.28
x1 = 0.4049 | 216.8 | 106.9 | 57.05 | 38.83
x1 = 0.5231 | 293.9 | 143.5 | 78.48 | 53.2
x1 = 0.6246 | 369.5 | 179.8 | 99.71 | 67.21
x1 = 0.7259 | 455.1 | 222.6 | 123.6 | 82.66
x1 = 0.8079 | 531.2 | 261.8 | 144.3 | 95.86
x1 = 0.9055 | 627 | 310.4 | 169 | 111.4
x1 = 0.9558 | 671.4 | 331.9 | 180.4 | 118.7

Nc1ccccc1 + CCCO
viscosity [mPa·s]
Details | 294.15 K | 298.15 K | 303.15 K | 308.15 K | 313.15 K
100 kPa, x1 = 0.091 | – | – | 1.673 | – | 1.319
100 kPa, x1 = 0.1839 | – | – | 1.635 | – | 1.275
100 kPa, x1 = 0.2978 | – | – | 1.609 | – | 1.255
100 kPa, x1 = 0.3949 | – | – | 1.626 | – | 1.271
100 kPa, x1 = 0.4741 | – | – | 1.673 | – | 1.31
100 kPa, x1 = 0.5952 | – | – | 1.819 | – | 1.399
100 kPa, x1 = 0.7405 | – | – | 2.129 | – | 1.602
100 kPa, x1 = 0.8903 | – | – | 2.582 | – | 1.958
101.33 kPa, x1 = 0.1006 | 2.097 | 1.902 | 1.685 | 1.501 | 1.341
101.33 kPa, x1 = 0.1991 | 2.123 | 1.93 | 1.703 | 1.516 | 1.357
101.33 kPa, x1 = 0.2994 | 2.219 | 1.993 | 1.753 | 1.56 | 1.394
101.33 kPa, x1 = 0.3992 | 2.336 | 2.098 | 1.846 | 1.633 | 1.446
101.33 kPa, x1 = 0.5007 | 2.499 | 2.234 | 1.952 | 1.727 | 1.526
101.33 kPa, x1 = 0.6011 | 2.689 | 2.398 | 2.092 | 1.842 | 1.638
101.33 kPa, x1 = 0.7011 | 2.963 | 2.641 | 2.304 | 2 | 1.791
101.33 kPa, x1 = 0.8002 | 3.289 | 2.925 | 2.575 | 2.241 | 1.981
101.33 kPa, x1 = 0.8983 | 3.671 | 3.245 | 2.81 | 2.455 | 2.16
